IC50 data for 21 compounds are collected here from US9238656B2, “Imidazo[4,5-b]pyridine derivatives as ALK and JAK modulators for the treatment of proliferative disorders” (priority 2012, dated 2016).

Assay [1] has as its target baculovirus-expressed JAK2 kinase (Homo sapiens, UniProt O60674). The assay is described as follows: biochemical. Particulars: 0.2 μM ATP; read-out: JAK2 Potency. In short, it runs like this:
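IC50 derived by variable-slope sigmoidal fit of percent inhibition against log compound concentration. Baculovirus-expressed JAK2 (15 ng/mL) phosphorylated a plate-bound biotinylated 15-mer peptide for 20 min at room temperature; detection by time-resolved fluorescence.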

Assay [2] concerns the target baculovirus-expressed ALK (Homo sapiens, UniProt Q9UM73). The assay is described as follows: ALK kinase inhibition, TRF/ELISA. It counts as biochemical. Conditions: read-out: ALK Potency. A digest of the protocol: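 Eu-PT66 anti-phosphotyrosine TRF read-out measured phosphorylation of plate-bound GST-PLC-γ (coated at 10 μg/mL). The phosphorylation was driven by 30 ng/mL ALK for 15 minutes at 37° C.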
Background: An ELISA detects its analyte on a solid surface through an enzyme-linked reagent.

Chain of baculovirus-expressed JAK2 kinase (O60674 whole entry): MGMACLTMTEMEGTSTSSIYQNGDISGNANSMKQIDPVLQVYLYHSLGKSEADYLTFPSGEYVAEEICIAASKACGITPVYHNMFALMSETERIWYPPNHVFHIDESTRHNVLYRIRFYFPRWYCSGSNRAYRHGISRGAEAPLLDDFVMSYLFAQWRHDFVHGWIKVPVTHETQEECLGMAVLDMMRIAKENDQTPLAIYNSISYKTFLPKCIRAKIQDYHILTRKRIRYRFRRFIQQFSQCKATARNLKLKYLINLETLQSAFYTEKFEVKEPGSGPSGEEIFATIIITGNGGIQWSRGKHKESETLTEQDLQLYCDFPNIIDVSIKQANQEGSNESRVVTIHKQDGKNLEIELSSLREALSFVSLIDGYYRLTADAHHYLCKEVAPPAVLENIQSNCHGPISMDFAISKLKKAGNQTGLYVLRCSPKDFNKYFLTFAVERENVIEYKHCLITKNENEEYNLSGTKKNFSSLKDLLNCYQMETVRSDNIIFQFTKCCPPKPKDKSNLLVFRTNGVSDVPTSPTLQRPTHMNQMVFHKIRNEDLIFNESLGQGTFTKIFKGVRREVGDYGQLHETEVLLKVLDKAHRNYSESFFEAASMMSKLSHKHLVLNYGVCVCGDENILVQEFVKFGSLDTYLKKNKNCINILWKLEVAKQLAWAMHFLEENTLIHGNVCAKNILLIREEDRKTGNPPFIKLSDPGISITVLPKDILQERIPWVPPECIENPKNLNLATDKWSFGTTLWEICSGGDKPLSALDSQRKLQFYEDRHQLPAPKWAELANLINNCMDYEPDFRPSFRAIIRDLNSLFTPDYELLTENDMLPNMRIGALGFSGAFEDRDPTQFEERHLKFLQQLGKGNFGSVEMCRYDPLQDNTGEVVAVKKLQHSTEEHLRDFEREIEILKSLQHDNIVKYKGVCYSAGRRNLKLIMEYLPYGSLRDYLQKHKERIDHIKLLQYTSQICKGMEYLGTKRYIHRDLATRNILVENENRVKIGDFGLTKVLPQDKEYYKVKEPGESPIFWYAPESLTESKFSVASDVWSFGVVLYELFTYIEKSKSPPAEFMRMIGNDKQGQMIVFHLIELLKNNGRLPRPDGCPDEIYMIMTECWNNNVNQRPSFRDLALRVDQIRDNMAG
Chain of baculovirus-expressed ALK (Q9UM73 19-1620): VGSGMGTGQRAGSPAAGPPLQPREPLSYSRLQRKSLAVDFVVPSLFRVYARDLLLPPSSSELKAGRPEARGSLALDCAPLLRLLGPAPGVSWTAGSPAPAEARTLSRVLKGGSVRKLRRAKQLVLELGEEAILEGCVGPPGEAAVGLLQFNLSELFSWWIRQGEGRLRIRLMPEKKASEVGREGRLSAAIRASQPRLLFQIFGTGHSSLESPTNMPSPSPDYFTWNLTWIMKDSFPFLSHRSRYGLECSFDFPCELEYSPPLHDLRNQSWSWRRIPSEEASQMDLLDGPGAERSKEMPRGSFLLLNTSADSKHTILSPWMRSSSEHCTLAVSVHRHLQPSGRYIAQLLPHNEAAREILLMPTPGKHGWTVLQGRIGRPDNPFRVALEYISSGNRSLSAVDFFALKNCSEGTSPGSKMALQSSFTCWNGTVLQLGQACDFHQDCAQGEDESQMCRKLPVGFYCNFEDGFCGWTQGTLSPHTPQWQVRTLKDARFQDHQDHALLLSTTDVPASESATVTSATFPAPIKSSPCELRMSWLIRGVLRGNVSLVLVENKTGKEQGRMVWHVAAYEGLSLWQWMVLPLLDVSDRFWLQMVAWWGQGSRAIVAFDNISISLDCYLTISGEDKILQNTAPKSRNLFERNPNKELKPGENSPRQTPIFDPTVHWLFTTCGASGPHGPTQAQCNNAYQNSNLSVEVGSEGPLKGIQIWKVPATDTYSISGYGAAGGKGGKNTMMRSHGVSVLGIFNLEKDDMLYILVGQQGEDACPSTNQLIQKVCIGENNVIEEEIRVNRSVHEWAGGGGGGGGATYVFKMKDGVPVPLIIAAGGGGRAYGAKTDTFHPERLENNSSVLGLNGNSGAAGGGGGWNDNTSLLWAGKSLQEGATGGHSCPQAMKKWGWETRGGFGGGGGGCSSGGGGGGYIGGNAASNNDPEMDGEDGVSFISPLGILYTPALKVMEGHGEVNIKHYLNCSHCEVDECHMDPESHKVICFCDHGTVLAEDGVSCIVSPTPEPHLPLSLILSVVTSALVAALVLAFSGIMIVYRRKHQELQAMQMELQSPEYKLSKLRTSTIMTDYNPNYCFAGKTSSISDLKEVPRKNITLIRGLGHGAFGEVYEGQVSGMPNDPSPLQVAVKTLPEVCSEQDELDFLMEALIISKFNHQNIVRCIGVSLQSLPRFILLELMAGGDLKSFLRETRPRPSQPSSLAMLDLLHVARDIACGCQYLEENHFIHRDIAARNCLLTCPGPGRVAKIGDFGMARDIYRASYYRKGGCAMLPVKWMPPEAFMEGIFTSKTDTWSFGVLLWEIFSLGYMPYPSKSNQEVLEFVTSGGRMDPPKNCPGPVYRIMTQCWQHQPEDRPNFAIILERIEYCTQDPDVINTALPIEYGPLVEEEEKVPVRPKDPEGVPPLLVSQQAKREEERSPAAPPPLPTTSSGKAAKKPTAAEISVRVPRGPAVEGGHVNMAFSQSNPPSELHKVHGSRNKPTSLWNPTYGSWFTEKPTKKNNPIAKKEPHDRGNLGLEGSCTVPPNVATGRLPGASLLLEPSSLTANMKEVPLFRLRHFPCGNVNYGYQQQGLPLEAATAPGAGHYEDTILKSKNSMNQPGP

With `CNC(=O)[C@@H]1[C@H](Nc2c(Cl)cnc3[nH]c(-c4ccc(N5CCOCC5)cc4)nc23)[C@H]2C=C[C@@H]1C2` [Compound CLXXVIII, (1S,2S,3R,4R)-3-(6-chloro-2-(4-morpholinophenyl)-3H-imidazo[4,5-b]pyridin-7-ylamino)-N-methylbicyclo[2.2.1]hept-5-ene-2-carboxamide], the IC50 in assay [1] and in assay [2] was less than 100 nM throughout.
In the case of `CN(C)c1cccc(-c2nc3c(N[C@H]4[C@@H](C(N)=O)[C@@H]5C=C[C@H]4C5)c(Cl)cnc3[nH]2)c1` [Compound XII, (1S,2S,3R,4R)-3-[6-Chloro-2-(3-dimethylamino-phenyl)-3H-imidazo[4,5-b]pyridin-7-ylamino]-bicyclo[2.2.1]hept-5-ene-2-carboxylic acid amide], the IC50 in assay [1] is less than 100 nM; in assay [2] it was 100 to 1000 nM.
Taken in the same sequence, the figures for `CN(C)CCNC(=O)c1cccc(-c2nc3c(N[C@H]4[C@@H](C(N)=O)[C@@H]5C=C[C@H]4C5)c(Cl)cnc3[nH]2)c1` [Compound CCXXXI, (1S,2S,3R,4R)-3-(6-chloro-2-(3-(2-(dimethylamino)ethylcarbamoyl)phenyl)-3H-imidazo[4,5-b]pyridine-7-ylamino)pyridin[2.2.1]hept-5-ene-2-carboxamide] were less than 100 nM and less than 100 nM.
Taken in the same sequence, the figures for `NC(=O)[C@@H]1[C@H](Nc2c(Cl)cnc3[nH]c(-c4ccc(OCC(=O)O)cc4)nc23)[C@H]2C=C[C@@H]1C2` [Compound CCXLVI, 2-(4-(7-((1R,2R,3S,4S)-3-carbamoylbicyclo[2.2.1]hept-5-en-2-ylamino)-6-chloro-3H-imidazo[4,5-b]pyridin-2-yl)phenoxy)acetic acid] were less than 100 nM and 100 to 1000 nM.
The matching figures for `NC(=O)[C@@H]1[C@H](Nc2c(Cl)cnc3[nH]c(-c4sc(N5CCCC5)nc4Cl)nc23)[C@H]2C=C[C@@H]1C2` [Compound CLXVI, (1S,2S,3R,4R)-3-[6-Chloro-2-(4-chloro-2-pyrrolidin-1-yl-thiazol-5-yl)-3H-imidazo[4,5-b]pyridin-7-ylamino]-bicyclo[2.2.1]hept-5-ene-2-carboxylic acid amide]: less than 100 nM and less than 100 nM.
For `NC(=O)[C@@H]1[C@H](Nc2c(Br)cnc3[nH]c(-c4ccc(N5CCOCC5)cc4Cl)nc23)[C@H]2C=C[C@@H]1C2` [Compound CXXXIV, (1S,2S,3R,4R)-3-[6-Bromo-2-(2-chloro-4-morpholin-4-yl-phenyl)-3H-imidazo[4,5-b]pyridin-7-ylamino]-bicyclo[2.2.1]hept-5-ene-2-carboxylic acid amide], the IC50 in assay [1] and in assay [2] was less than 100 nM throughout.
Consider `CN(C)c1ccc(-c2nc3c(N[C@H]4[C@@H](C(N)=O)[C@@H]5C=C[C@H]4C5)c(Cl)cnc3[nH]2)cc1` [Compound I, (1S,2S,3R,4R)-3-[6-Chloro-2-(4-dimethylamino-phenyl)-3H-imidazo[4,5-b]pyridin-7-ylamino]-bicyclo[2.2.1]hept-5-ene-2-carboxylic acid amide], for which the IC50 in assay [1] and in assay [2] was less than 100 nM in each case.
Turning to `Cc1nc(C2CCNCC2)sc1-c1nc2c(N[C@H]3[C@@H](C(N)=O)[C@@H]4C=C[C@H]3C4)c(Cl)cnc2[nH]1` [Compound LXIV, (1S,2S,3R,4R)-3-[6-Chloro-2-(4-methyl-2-piperidin-4-yl-thiazol-5-yl)-3H-imidazo[4,5-b]pyridine-7-ylamino]-bicyclo[2.2.1]hept-5-ene-2-carboxylic acid amide], the IC50 in assay [1] and in assay [2] was less than 100 nM each time.
As for `CN(C)C(=O)[C@@H]1[C@H](Nc2c(Cl)cnc3[nH]c(-c4sc(N5CCCC5)nc4Cl)nc23)[C@H]2C=C[C@@H]1C2` [Compound CLXIV, (1S,2S,3R,4R)-3-[6-Chloro-2-(4-chloro-2-pyrrolidin-1-yl-thiazol-5-yl)-3H-imidazo[4,5-b]pyridin-7-ylamino]-bicyclo[2.2.1]hept-5-ene-2-carboxylic acid dimethylamide], the IC50 in assay [1] and in assay [2] was less than 100 nM each time.
For `CC(C)NC(=O)[C@@H]1[C@H](Nc2c(Cl)cnc3[nH]c(-c4sc(N5CC[C@@H](O)C5)nc4Cl)nc23)[C@H]2C=C[C@@H]1C2` [Compound CLXIX, (1S,2S,3R,4R)-3-{6-Chloro-2-[4-chloro-2-((R)-3-hydroxy-pyrrolidin-1-yl)-thiazol-5-yl]-1H-imidazo[4,5-b]pyridin-7-ylamino}-bicyclo[2.2.1]hept-5-ene-2-carboxylic acid isopropylamide], the results for the IC50 in assay [1] and in assay [2] were 1000 to 10000 nM and 100 to 1000 nM, respectively.
Taken in the same sequence, the figures for `N#Cc1ccc(-c2nc3c(N[C@H]4[C@@H](C(N)=O)[C@@H]5C=C[C@H]4C5)c(Br)cnc3[nH]2)cc1` [Compound CXLVII, (1S,2S,3R,4R)-3-[6-Bromo-2-(4-cyano-phenyl)-3H-imidazo[4,5-b]pyridin-7-ylamino]-bicyclo[2.2.1]hept-5-ene-2-carboxylic acid amide] were less than 100 nM and 100 to 1000 nM.
Taken in the same sequence, the figures for `NC(=O)[C@@H]1[C@H](Nc2c(Br)cnc3[nH]c(-c4ccnc(N5CCOCC5)c4)nc23)[C@H]2C=C[C@@H]1C2` [Compound CXXXVI, (1S,2S,3R,4R)-3-[6-Bromo-2-(2-morpholin-4-yl-pyridin-4-yl)-3H-imidazo[4,5-b]pyridin-7-ylamino]-bicyclo[2.2.1]hept-5-ene-2-carboxylic acid amide] were less than 100 nM and 100 to 1000 nM.
The matching figures for `CC(O)CN1CCN(C(=O)COc2cccc(-c3nc4c(N[C@H]5[C@@H](C(N)=O)[C@@H]6C=C[C@H]5C6)c(Cl)cnc4[nH]3)c2)CC1` (stereo partly drawn) [Compound CCXLI, (1S,2S,3R,4R)-3-(6-chloro-2-(3-(2-(4-(2-hydroxypropyl)piperazin-1-yl)-2-oxoethoxy)phenyl)-3H-imidazo[4,5-b]pyridin-7-ylamino)bicyclo[2.2.1]hept-5-ene-2-carboxamide]: less than 100 nM and 100 to 1000 nM.
In the case of `NC(=O)[C@@H]1[C@H](Nc2c(Cl)cnc3[nH]c(-c4sc(N5CCOCC5)nc4Cl)nc23)[C@H]2C=C[C@@H]1C2` [Compound CLX, (1S,2S,3R,4R)-3-[6-Chloro-2-(4-chloro-2-morpholin-4-yl-thiazol-5-yl)-3H-imidazo[4,5-b]pyridin-7-ylamino]-bicyclo[2.2.1]hept-5-ene-2-carboxylic acid amide], the IC50 in assay [1] and in assay [2] was less than 100 nM throughout.
For the compound `O=C(NC1CC1)[C@@H]1[C@H](Nc2c(Cl)cnc3[nH]c(-c4sc(N5CCOCC5)nc4Cl)nc23)[C@H]2C=C[C@@H]1C2` [Compound CLXXIV, (1S,2S,3R,4R)-3-[6-Chloro-2-(4-chloro-2-morpholin-4-yl-thiazol-5-yl)-3H-imidazo[4,5-b]pyridin-7-ylamino]-bicyclo[2.2.1]hept-5-ene-2-carboxylic acid cyclopropylamide], the values for the IC50 in assay [1] and in assay [2] were 100 to 1000 nM and less than 100 nM, respectively.
Taken in the same sequence, the figures for `NC(=O)[C@@H]1[C@H](Nc2c(Cl)cnc3[nH]c(-c4ccc(C(=O)N5CCNCC5)cc4)nc23)[C@H]2C=C[C@@H]1C2` [Compound CCXX, (1S,2S,3R,4R)-3-(6-chloro-2-(4-(piperazine-1-carbonyl)phenyl)-3H-imidazo[4,5-b]pyridin-7-ylamino)bicyclo[2.2.1]hept-5-ene-2-carboxamide] were less than 100 nM and less than 100 nM.
Taken in the same sequence, the figures for `CN1CCN(c2nc(Cl)c(-c3nc4c(N[C@H]5[C@@H](C(N)=O)[C@@H]6C=C[C@H]5C6)c(Cl)cnc4[nH]3)s2)CC1` [Compound CCXII, (1S,2S,3R,4R)-3-(6-chloro-2-(4-chloro-2-(4-methylpiperazin-1-yl)thiazol-5-yl)-3H-imidazo[4,5-b]pyridin-7-ylamino)bicyclo[2.2.1]hept-5-ene-2-carboxamide] were less than 100 nM and less than 100 nM.
Regarding `COc1cc(OC(F)(F)F)ccc1-c1nc2c(N[C@H]3[C@@H](C(N)=O)[C@@H]4C=C[C@H]3C4)c(Cl)cnc2[nH]1` [Compound XVIII, (1S,2S,3R,4R)-3-[6-Chloro-2-(2-methoxy-4-trifluoromethoxy-phenyl)-3H-imidazo[4,5-b]pyridine-7-ylamino]-bicyclo[2.2.1]hept-5-ene-2-carboxylic acid amide], the IC50 in assay [1] is 100 to 1000 nM; in assay [2] it was less than 100 nM.
The matching figures for `NC(=O)[C@@H]1[C@H](Nc2c(Cl)cnc3[nH]c(-c4ccc(C(=O)O)cc4)nc23)[C@H]2C=C[C@@H]1C2` [Compound CCXVIII, 4-(7-((1R,2R,3S,4S)-3-carbamoylbicyclo[2.2.1]hept-5-en-2-ylamino)-6-chloro-3H-imidazo[4,5-b]pyridin-2-yl)benzoic acid]: less than 100 nM and 100 to 1000 nM.
Taken in the same sequence, the figures for `COc1cc(N2CCOCC2)ccc1-c1nc2c(N3C[C@@H]4C[C@H]3CN4C[C@H](C)O)c(Cl)cnc2[nH]1` [Compound XXXIX, (S)-1-[(1S,4S)-5-[6-Chloro-2-(methoxy-4-morpholin-4-yl-phenyl)-3H-imidazo[4,5-b]pyridine-7-yl]-2,5-diaza-bicyclo[2.2.1]hept-2-yl]-propan-2-ol] were greater than 10000 nM and greater than 10000 nM.
The matching figures for `NC(=O)COc1ccc(-c2nc3c(N[C@H]4[C@@H](C(N)=O)[C@@H]5C=C[C@H]4C5)c(Cl)cnc3[nH]2)cc1` [Compound CCXL, (1S,2S,3R,4R)-3-(2-(4-(2-amino-2-oxoethoxy)phenyl)-6-chloro-3H-imidazo[4,5-b]pyridin-7-ylamino)bicyclo[2.2.1]hept-5-ene-2-carboxamide]: less than 100 nM and 100 to 1000 nM.
